Test results published in ChEMBL document CHEMBL3352227, “Synthesis, antimycobacterial and antibacterial evaluation of l-[(1R, 2S)-2-fluorocyclopropyl]fluoroquinolone derivatives containing an oxime functional moiety” (Eur J Med Chem, 2014).
Values after ≈ are worked out from the molar mass of the structure shown.

Assays:
Staphylococcus aureus [1] = assay: Antibacterial activity against methicillin-sensitive Staphylococcus aureus 12-2 after 18 to 24 hrs by standard twofold serial dilution method; type: functional
Escherichia coli [2] = assay: Antibacterial activity against Escherichia coli 12-1 after 18 to 24 hrs by standard twofold serial dilution method; type: functional
Staphylococcus aureus [3] = assay: Antibacterial activity against methicillin-resistant Staphylococcus aureus 12-4 after 18 to 24 hrs by standard twofold serial dilution method; type: functional
Klebsiella pneumoniae [4] = assay: Antibacterial activity against extended-spectrum beta-lactamase producin Klebsiella pneumoniae 12-3 after 18 to 24 hrs by standard twofold serial dilution method; type: functional
Klebsiella pneumoniae [5] = assay: Antibacterial activity against extended-spectrum beta-lactamase producin Klebsiella pneumoniae 12-14 after 18 to 24 hrs by standard twofold serial dilution method; type: functional
[6] = system: Staphylococcus epidermidis; assay: Antibacterial activity against methicillin-sensitive Staphylococcus epidermidis 12-3 after 18 to 24 hrs by standard twofold serial dilution method; type: functional
[7] = system: Staphylococcus epidermidis; assay: Antibacterial activity against methicillin-resistant Staphylococcus epidermidis 12-6 after 18 to 24 hrs by standard twofold serial dilution method; type: functional
Staphylococcus aureus [8] = assay: Antibacterial activity against methicillin-resistant Staphylococcus aureus 12-5 after 18 to 24 hrs by standard twofold serial dilution method; type: functional
Escherichia coli [9] = assay: Antibacterial activity against extended-spectrum beta-lactamase producing Escherichia coli 12-3 after 18 to 24 hrs by standard twofold serial dilution method; type: functional
Escherichia coli [10] = assay: Antibacterial activity against extended-spectrum beta-lactamase producing Escherichia coli 12-2 after 18 to 24 hrs by standard twofold serial dilution method; type: functional
Staphylococcus aureus [11] = assay: Antibacterial activity against methicillin-sensitive Staphylococcus aureus 12-4 after 18 to 24 hrs by standard twofold serial dilution method; type: functional
Klebsiella pneumoniae [12] = assay: Antibacterial activity against extended-spectrum beta-lactamase producin Klebsiella pneumoniae 12-7 after 18 to 24 hrs by standard twofold serial dilution method; type: functional
Klebsiella pneumoniae [13] = assay: Antibacterial activity against Klebsiella pneumoniae 12-2 after 18 to 24 hrs by standard twofold serial dilution method; type: functional
[14] = system: Staphylococcus epidermidis; assay: Antibacterial activity against methicillin-sensitive Staphylococcus epidermidis 12-1 after 18 to 24 hrs by standard twofold serial dilution method; type: functional
[15] = system: Staphylococcus epidermidis; assay: Antibacterial activity against methicillin-sensitive Staphylococcus epidermidis 12-6 after 18 to 24 hrs by standard twofold serial dilution method; type: functional
Pseudomonas aeruginosa [16] = assay: Antibacterial activity against Pseudomonas aeruginosa 12-14 after 18 to 24 hrs by standard twofold serial dilution method; type: functional
Escherichia coli [17] = assay: Antibacterial activity against extended-spectrum beta-lactamase producing Escherichia coli 12-15 after 18 to 24 hrs by standard twofold serial dilution method; type: functional
Streptococcus pneumoniae [18] = assay: Antibacterial activity against Streptococcus pneumoniae ATCC 49619 after 18 to 24 hrs by standard twofold serial dilution method; type: functional
Klebsiella pneumoniae [19] = assay: Antibacterial activity against Klebsiella pneumoniae 12-1 after 18 to 24 hrs by standard twofold serial dilution method; type: functional
[20] = system: Mycobacterium tuberculosis; assay: Antimycobacterial activity against Mycobacterium tuberculosis H37Rv ATCC 27294 by MABA method; type: functional
[21] = Solubility of the compound; type: physicochemical
[22] = system: Staphylococcus epidermidis; assay: Antibacterial activity against methicillin-resistant Staphylococcus epidermidis 12-1 after 18 to 24 hrs by standard twofold serial dilution method; type: functional
Staphylococcus aureus [23] = assay: Antibacterial activity against methicillin-sensitive Staphylococcus aureus 12-1 after 18 to 24 hrs by standard twofold serial dilution method; type: functional
Staphylococcus aureus [24] = assay: Antibacterial activity against methicillin-resistant Staphylococcus aureus 12-2 after 18 to 24 hrs by standard twofold serial dilution method; type: functional
Klebsiella pneumoniae [25] = assay: Antibacterial activity against Klebsiella pneumoniae 12-4 after 18 to 24 hrs by standard twofold serial dilution method; type: functional
Pseudomonas aeruginosa [26] = assay: Antibacterial activity against Pseudomonas aeruginosa 12-12 after 18 to 24 hrs by standard twofold serial dilution method; type: functional
Streptococcus pneumoniae [27] = assay: Antibacterial activity against Streptococcus pneumoniae 12-18 after 18 to 24 hrs by standard twofold serial dilution method; type: functional
Klebsiella pneumoniae [28] = assay: Antibacterial activity against extended-spectrum beta-lactamase producin Klebsiella pneumoniae 12-4 after 18 to 24 hrs by standard twofold serial dilution method; type: functional
Staphylococcus aureus [29] = assay: Antibacterial activity against methicillin-sensitive Staphylococcus aureus 12-1 infected in mouse dosed orally twice at 0 and 6 hrs after infection; type: functional; settings: 12-1, po
Escherichia coli [30] = assay: Antibacterial activity against Escherichia coli 12-1 infected in mouse dosed orally twice at 0 and 6 hrs after infection; type: functional; settings: 12-1, po
Escherichia coli [31] = assay: Antibacterial activity against extended-spectrum beta-lactamase producing Escherichia coli 12-14 after 18 to 24 hrs by standard twofold serial dilution method; type: functional
Staphylococcus aureus [32] = assay: Antibacterial activity against Staphylococcus aureus ATCC 25923 after 18 to 24 hrs by standard twofold serial dilution method; type: functional
Escherichia coli [33] = assay: Antibacterial activity against Escherichia coli ATCC 25922 after 18 to 24 hrs by standard twofold serial dilution method; type: functional
Staphylococcus aureus [34] = assay: Antibacterial activity against methicillin-sensitive Staphylococcus aureus 12-5 after 18 to 24 hrs by standard twofold serial dilution method; type: functional
[35] = system: Staphylococcus epidermidis; assay: Antibacterial activity against methicillin-sensitive Staphylococcus epidermidis 12-8 after 18 to 24 hrs by standard twofold serial dilution method; type: functional
Klebsiella pneumoniae [36] = assay: Antibacterial activity against Klebsiella pneumoniae 12-1 infected in mouse dosed orally twice at 0 and 6 hrs after infection; type: functional; settings: 12-1, po
Staphylococcus aureus [37] = assay: Antibacterial activity against methicillin-resistant Staphylococcus aureus 12-5 infected in mouse dosed orally twice at 0 and 6 hrs after infection; type: functional; settings: 12-5, po
[38] = system: Staphylococcus epidermidis; assay: Antibacterial activity against methicillin-resistant Staphylococcus epidermidis 12-1 infected in mouse dosed orally twice at 0 and 6 hrs after infection; type: functional; settings: 12-1, po
Streptococcus pneumoniae [39] = assay: Antibacterial activity against Streptococcus pneumoniae 12-10 infected in mouse dosed orally twice at 0 and 6 hrs after infection; type: functional; settings: 12-10, po

Compound | MIC (Staphylococcus aureus [1]) [µg/mL] | MIC (Escherichia coli [2]) [µg/mL] | MIC (Staphylococcus aureus [3]) [µg/mL] | MIC (Klebsiella pneumoniae [4]) [µg/mL] | MIC (Klebsiella pneumoniae [5]) [µg/mL] | MIC [6] [µg/mL] | MIC [7] [µg/mL] | MIC (Staphylococcus aureus [8]) [µg/mL] | MIC (Escherichia coli [9]) [µg/mL] | MIC (Escherichia coli [10]) [µg/mL] | MIC (Staphylococcus aureus [11]) [µg/mL] | MIC (Klebsiella pneumoniae [12]) [µg/mL] | MIC (Klebsiella pneumoniae [13]) [µg/mL] | MIC [14] [µg/mL] | MIC [15] [µg/mL] | MIC (Pseudomonas aeruginosa [16]) [µg/mL] | MIC (Escherichia coli [17]) [µg/mL] | MIC (Streptococcus pneumoniae [18]) [µg/mL] | MIC (Klebsiella pneumoniae [19]) [µg/mL] | MIC [20] [µg/mL] | also measured
NCC1CN(c2nc3c(cc2F)c(=O)c(C(=O)O)cn3[C@@H]2C[C@@H]2F)C/C1=N/OCc1ccccc1 (some centres undefined) | < 0.008 | 0.125 (≈ 0.259 µM) | 2 (≈ 4.14 µM) | 16 (≈ 33.1 µM) | 32 (≈ 66.2 µM) | < 0.008 | 2 (≈ 4.14 µM) | 1 (≈ 2.07 µM) | 16 (≈ 33.1 µM) | 64 (≈ 132 µM) | < 0.008 | 1 (≈ 2.07 µM) | 0.125 (≈ 0.259 µM) | < 0.008 | < 0.008 | 1 (≈ 2.07 µM) | 128 (≈ 265 µM) | 0.03 (≈ 0.0621 µM) | 0.03 (≈ 0.0621 µM) | 0.5 (≈ 1.03 µM) | solubility [21]: 240 µg/mL (≈ 496 µM); MIC [22]: 0.25 µg/mL (≈ 0.517 µM); MIC (Staphylococcus aureus [23]): < 0.008 µg/mL; MIC (Staphylococcus aureus [24]): 1 µg/mL (≈ 2.07 µM); MIC (Klebsiella pneumoniae [25]): 0.06 µg/mL (≈ 0.124 µM); MIC (Pseudomonas aeruginosa [26]): 1 µg/mL (≈ 2.07 µM); MIC (Streptococcus pneumoniae [27]): 0.25 µg/mL (≈ 0.517 µM); MIC (Klebsiella pneumoniae [28]): 16 µg/mL (≈ 33.1 µM); ED50 (Staphylococcus aureus [29]): 16.9 mg/kg; ED50 (Escherichia coli [30]): 18 mg/kg; MIC (Escherichia coli [31]): 16 µg/mL (≈ 33.1 µM); MIC (Staphylococcus aureus [32]): < 0.008 µg/mL; MIC (Escherichia coli [33]): < 0.008 µg/mL; MIC (Staphylococcus aureus [34]): < 0.008 µg/mL; MIC [35]: 0.125 µg/mL (≈ 0.259 µM)
CO/N=C1/CCN(c2c(F)cc3c(=O)c(C(=O)O)cn([C@@H]4C[C@@H]4F)c3c2OC)CC1N (some centres undefined) | < 0.008 | 0.5 (≈ 1.15 µM) | 2 (≈ 4.58 µM) | 16 (≈ 36.7 µM) | 64 (≈ 147 µM) | < 0.008 | 1 (≈ 2.29 µM) | 2 (≈ 4.58 µM) | 32 (≈ 73.3 µM) | 32 (≈ 73.3 µM) | < 0.008 | 2 (≈ 4.58 µM) | 0.5 (≈ 1.15 µM) | < 0.008 | < 0.008 | 4 (≈ 9.17 µM) | 32 (≈ 73.3 µM) | 0.125 (≈ 0.286 µM) | 0.25 (≈ 0.573 µM) | 0.25 (≈ 0.573 µM) | ED50 (Klebsiella pneumoniae [36]): 21.1 mg/kg; ED50 (Staphylococcus aureus [37]): 26 mg/kg; ED50 [38]: 25.4 mg/kg; solubility [21]: 3590 µg/mL (≈ 8230 µM); MIC [22]: 0.5 µg/mL (≈ 1.15 µM); MIC (Staphylococcus aureus [23]): < 0.008 µg/mL; MIC (Staphylococcus aureus [24]): 2 µg/mL (≈ 4.58 µM); MIC (Klebsiella pneumoniae [25]): 0.5 µg/mL (≈ 1.15 µM); MIC (Pseudomonas aeruginosa [26]): 4 µg/mL (≈ 9.17 µM); MIC (Streptococcus pneumoniae [27]): 1 µg/mL (≈ 2.29 µM); MIC (Klebsiella pneumoniae [28]): 16 µg/mL (≈ 36.7 µM); ED50 (Staphylococcus aureus [29]): 11.4 mg/kg; ED50 (Escherichia coli [30]): 12.1 mg/kg; MIC (Escherichia coli [31]): 16 µg/mL (≈ 36.7 µM); ED50 (Streptococcus pneumoniae [39]): 25.3 mg/kg; MIC (Staphylococcus aureus [32]): 0.015 µg/mL (≈ 0.0344 µM); MIC (Escherichia coli [33]): 0.06 µg/mL (≈ 0.137 µM); MIC (Staphylococcus aureus [34]): < 0.008 µg/mL; MIC [35]: 0.25 µg/mL (≈ 0.573 µM)
